Earlier results as cited in patent publication US6184241A, “Aspartic protease inhibitors” (Kansas State University Research Foundation, priority 1998, dated 2001).

Conditions: heterocyclic ring

c1c[nH]cn1 [imidazole]
pKa: 6.0-7.0
